The nature of this data set: Solubility determination (15 minutes at room temperature, HPLC). It is filed as physicochemical. The following applies: fifteen minutes. Here is the method: 1 mL of buffer or of ultrapure (resistivity≥18.2 Mf cm) water was added to a pre-weighed, approximately twenty milligram aliquot of the substance to be measured. The resulting suspensions were stirred for 15 minutes at room temperature with magnetic stirrers. The suspensions were centrifuged and filtered through Millipore 0.2 μm PVDF filters, and the concentration of each filtrate (i.e., saturated solution) was determined using a general HPLC method. The pH of each saturated solution was measured with a Metrohm 713 pH meter.
To assess whether Form K and Form K′ are likely to have different bioavailabilities, comparative solubility measurements were carried out in physiologically relevant media. Samples of Form K and Form K′ were separately equilibrated in pure water, pH 2.0 buffer, and pH 6.8 buffer for fifteen minutes, and the solids were then separated from the solvents. The concentration of the compound in the filtrate (i.e., the solubility) was assessed in each case, and the solid residues were also monitored by powder X-ray diffraction. All six solid residues correspond to Form K, confirming that Form K′ rapidly incorporates water into its lattice when suspended in an aqueous environment even when the solubility is low. While the solubilities in pure water and at pH 6.8 were below the limit of quantitation of 0.0001 mg/mL, the solubilities at pH 2.0 could be measured. […] Thus, the bioavailabilities of the two forms are expected to be similar, and precise control of the water content (and, thereby, the solid form) is presumably not necessary from a scientific point of view. Given that the critical water activity is in the range aH2O=0.11-0.17, the hydrated Form K is likely to be the more easily stabilized of the two forms under ambient laboratory conditions.

For `N#Cc1ccc(N2CCN(Cc3ccc(COc4cccc5c4CN([C@H]4CCC(=O)NC4=O)C5=O)cc3)CC2)c(F)c1.O` [Form K of a free base of Compound 1], the “solubility at pH 2.0” value (pH 2.0 buffer) is listed as 0.96 mg/mL. Besides, the “solid residue after solubility measurement (powder X-ray diffraction)” value (pure water, pH 2.0 buffer and pH 6.8 buffer) was “Form K”.

Values taken from patent US12391672B2, “Solid forms comprising (S)-4-(4-(4-(((2-(2,6-dioxopiperidin-3-yl)-1-oxoisoindolin-4-yl)oxy)methyl)benzyl)piperazin-1-yl)-3-fluorobenzonitrile and salts thereof, and compositions comprising and methods of using the same” (Celgene Corporation, priority 2019, dated 2025).
